# Measurements taken from patent publication US8334253B2, “Cosmetic and dermatological formulations of MNTF peptides” (Dermacare Neuroscience Institute, priority 2008, dated 2012).
# Ends that are not written are not given here.
# Columns and labels:
# [1] = system: cellular peroxide levels in human epidermal keratinocytes; assay: Cellular peroxide levels in keratinocytes, DCFH-DA dye and flow cytometry, with and without exogenous H2O2; type: cell-based
# Protocol: Hydrogen peroxide can induce damages to skin cells. The dermal protective efficacy of Pal-hexapeptide was assessed by measuring basal peroxide levels in the presence and absence of the compound.
# Basal peroxide production, generated by normal cellular metabolism, induce gradual development of low levels of peroxide-specific cellular fluorescence.
# Extracellular peroxides (e.g., H2O2 added exogenously) can permeate the cell membrane and cause a rapid and dramatic increase in the peroxide-specific fluorescence of the cell. Cellular peroxides levels can be measured by flow cytometry using the peroxide-specific dye, 2′,7′-dichlorofluorescein diacetate (DCFH-DA). DCFH-DA is initially non-fluorescent and is rapidly concentrated within living cells by an enzyme-dependent process. […] The results of the assay indicates if a test compound functions as an oxidant or an anti-oxidant in a cellular system. If the test article functions as an anti-oxidant, this assay can also be used to determine if the test compound can permeate the cell membrane to quench intracellular peroxide or if it can only affect extracellular peroxide levels (Bass et al., 1983, J. Immunol. 130:1910-1917; Bombick et al., 1992, Toxicol. Meth. 2:255-264).
# Human primary keratinocytes, generally on the third passage, were seeded in T75 flasks and cultured until 70-80% confluent. A cell suspension was created and these cells were loaded with the dye DCFH-DA. The pre-incubated cells were exposed to dilutions of the Pal-hexapeptide having the amino acid sequence SEQ ID NO: 2 in two triplicate sets per dilution. One triplicate set was incubated with H2O2 (exogenous source of peroxide), and both sets were stained with Propidium Iodide. Cell viability and peroxide production were determined by fluorescence readings on a FACScan flow cytometer. Peroxide value increases or decreases of 25% or more compared to vehicle control values are considered biologically significant.
# [2] = system: UVA-bleaching of beta-carotene; assay: UVA bleaching of beta-carotene on forearm skin, Color Index by CHROMAMETER; type: in vivo, human; conditions: human forearm
# Protocol: In-vivo method for assessing the protective effects of cosmetic products. Bleaching of carotenoids have been used to evaluate the auto-oxidation activity of natural products. The relative efficacy of scavengers of lipid peroxyl free radicals after application to the skin was assessed by measuring the UVA-bleaching of beta-carotene as a function of the energy exposure.
# A CHROMAMETER colorimeter (TM, Minolta Model CR-300) was used to measure changes in color by expressing the color of measured surfaces numerically in L*a*b* color space which is a system recommended by the CIE (Commission Internationale de I'Eclairage) for skin color assessment. In this color space, L* is the luminance and gives the relative brightness from total black (L*=0) to total white (L*=100). The a* value represents the balance between the reds (positive values) and the greens (negative values). The b* value represents the balance between the yellows (positive values) and the blues (negative values). The b* value most closely describes the intensity of the orange color of the β-carotene stain and is in direct correlation with the Color Index, I. The CHROMAMETER provides a means by which oxidative damage caused by free radicals and, conversely, the prevention of oxidation by free radical scavengers, can be measured. Free radical oxidation induced by UVA radiation elicits a bleaching and reduction of color of beta-carotene stain. The bleaching and prevention of bleaching by a test material can be measured by the CHROMAMETER. Bleaching is reported as the change in b* versus UVA Irradiation Energy. It can also be expressed in terms of a Color Index, I, defined as: I=[(bn*−bi*)/(b0*−bi*)]×100 where, bn* is the value of b* measured after n J/cm^2 of irradiation of the area treated with the cosmetic formulation and painted with the β-carotene; b0* is the value of b* after application of the beta-carotene but before irradiation; and bi* is the value of b* before application of the beta-carotene. This index compensates for any effects of skin color on bn* and b0*. Bleaching will cause bn* value and I value (as a percentage) to decrease. Prevention of bleaching will result in higher I values or less reduction in I value when exposed to radiation.
# The designated forearm of impaneled subjects was cleansed with a 70% isopropyl alcohol prep pad (Medium, Dynarex) and allowed to dry. Test sites were selected on the volar surface of the designated forearm of each subject, with each test site defined by the open, central area of a self-adhesive ring (Professional ProFoot™ Products, P.P.R. Co, Inc.). The adhesive side of the rings were placed directly on the skin. The rings were used to retain the test material and beta-carotene solution as well as to function as a guide for taking measurements with the CHROMAMETER.
# Gel formulations (0.1% Pal-hexapeptide) and (0.1% hexapeptide) were applied to the forearm according to a randomized schedule. Additional sites were treated with a beta-carotene control, a positive control (internal control) and an untreated control. Treatment of the test sites were randomized for each subject.
# Prior to application of the test materials or beta-carotene, the initial b* parameter was measured using the CHROMAMETER and recorded for all duplicate test sites of the forearm (Baseline). Approximately 2 mg/cm^2 of each material was applied to the designated test site and spread manually with a finger cot to ensure even distribution. Sites designated as untreated, with or without beta-carotene, remained untreated at this time. The test materials and internal control were allowed to incubate with the skin surface for a period of fifteen (15) minutes. After this incubation period, b* measurements were recorded for all sites (Product Baseline).
# A solution of beta-carotene in a mixture of capric and caprylic triglycerides was applied to all treated sites. The b* parameter is again measured and recorded (beta-carotene Baseline). […]
Compound,"% Control (no H2O2), peroxide level ([1]; 0.1 mM, endogenous peroxide)","% Control (with H2O2), peroxide level ([1]; 0.1 mM, exogenous H2O2 added)","% Control (no H2O2), peroxide level ([1]; 1 mM, endogenous peroxide)","% Control (with H2O2), peroxide level ([1]; 1 mM, exogenous H2O2 added)","exogenous peroxide level (as defined by the 25% cutoff), in words ([1]; 1 mM, exogenous H2O2 added)","% Control (no H2O2), peroxide level ([1]; 10 mM, endogenous peroxide)","endogenous peroxide level (as defined by the 25% cutoff), in words ([1]; 10 mM, endogenous peroxide)","% Control (with H2O2), peroxide level ([1]; 10 mM, exogenous H2O2 added)","exogenous peroxide level (as defined by the 25% cutoff), in words ([1]; 10 mM, exogenous H2O2 added)","% Control (no H2O2), peroxide level ([1]; 0.01 mM, endogenous peroxide)","% Control (with H2O2), peroxide level ([1]; 0.01 mM, exogenous H2O2 added)",further results
FSR [CS2307],98.7%,95.5%,60.6%,62.5%,decreased,−8.5%,decreased,−1.5%,decreased,–,–,"endogenous peroxide level (as defined by the 25% cutoff), in words ([1]; 1 mM, endogenous peroxide): decreased; % Control (no H2O2), peroxide level ([1]; 10 mM, endogenous peroxide, listed as MNTF 3-mer): 0%; % Control (with H2O2), peroxide level ([1]; 10 mM, exogenous H2O2 added, listed as MNTF 3-mer): 0%"
"Cc1c(C)c2c(c(C)c1O)CCC(C)(C(=O)O)O2 (centres unmarked) [Trolox, reference compound]",–,–,–,–,–,–,–,–,–,–,–,"peroxide level, % of the control, endogenous peroxide assay without exogenous H2O2 ([1]; positive control, 300 μM, endogenous peroxide): 69.79%; peroxide level, % of the control, assay with exogenous added peroxide ([1]; positive control, 300 μM, exogenous H2O2 added): 24.97%"
"CC1=C(/C=C/C(C)=C/C=C/C(C)=C/C=C/C=C(C)/C=C/C=C(C)/C=C/C2=C(C)CCCC2(C)C)C(C)(C)CCC1 [PC (beta-carotene), beta-carotene]",–,–,–,–,–,–,–,–,–,–,–,average Color Index Value ([2]; UVA energy 0 J/cm^2): 100%; average Color Index Value ([2]; UVA energy 1 J/cm^2): 36%; average Color Index Value ([2]; UVA energy 2 J/cm^2): 27%; average Color Index Value ([2]; UVA energy 3 J/cm^2): 23%; average Color Index Value ([2]; UVA energy 4 J/cm^2): 16%; average Color Index Value ([2]; UVA energy 5 J/cm^2): 14%; average Color Index Value ([2]; UVA energy 6 J/cm^2): 13%
FSRY [CS2308],98.6%,84.5%,77.2%,54.9%,decreased,25.2%,decreased,−5.8%,decreased,–,–,"% Control (no H2O2), peroxide level ([1]; 10 mM, endogenous peroxide, listed as MNTF 4-mer): 0%; % Control (with H2O2), peroxide level ([1]; 10 mM, exogenous H2O2 added, listed as MNTF 4-mer): 25.2%"
Pal 4mer: palmitylated form of the MNTF 4 mer (SEQ ID NO:11) (FSRY; also: palmitoyl group),96.8%,96.6%,81.8%,67.2%,decreased,–,–,–,–,97.2%,102.4%,–
Pal 3 mer: palmitylated form of the MNTF 3 mer (SEQ ID NO:9) (Phe-Ser-Arg; also: palmitoyl group),98.7%,96.1%,101.1%,71.9%,decreased,–,–,–,–,99.4%,101.0%,–
FSRYA [CS2309],103.3%,87.2%,61.6%,46.2%,decreased,3.6%,decreased,−5.9%,decreased,–,–,"endogenous peroxide level (as defined by the 25% cutoff), in words ([1]; 1 mM, endogenous peroxide): decreased; % Control (with H2O2), peroxide level ([1]; 10 mM, exogenous H2O2 added, listed as MNTF 5-mer): 0%"
"FSRYAR [GM602, FSRYAR]",94.9%,92.9%,73.6%,56.0%,–,25.0%,–,14.3%,–,–,–,"Cell viability, expressed as % of non-viable, treated versus not treated cells ([1]; keratinocytes, Propidium Iodide staining): about the same"
Pal 5 mer: palmitylated form of the MNTF 5 mer (SEQ ID NO:17) (FSRYA; also: palmitoyl group),92.8%,96.0%,83.6%,62.2%,decreased,–,–,–,–,95.3%,98.6%,–
